{"source": "patent US4259450A", "about": "“Antibiotic acanthomycin and process for preparing” (The Upjohn Company, priority 1977, dated 1981)", "key": {"Staphylococcus aureus": {"test_system": "Staphylococcus aureus", "assay": "standard disc (12.7 mm) plate assay", "assay_type": "cell-based", "protocol": "(§1) Acanthomycin was tested for antibacterial activity in a standard tube assay using nutrient broth as the medium. The minimum inhibitory concentration in mcg/ml against S. aureus was 50, and against S. lutea it was 25. Additional testing on a standard disc (12.7 mm) plate assay gave the following results:\n(§2) The fermentation can be monitored by a disc-plate assay using B. subtilis as the test organism and deionized H2 O as diluent. A unit volume (0.08 ml) of solution containing the substance to be assayed is placed on a 12.7 mm paper disc which is then placed on an agar plate seeded with the assay organism. The agar plate is then incubated for 16 to 18 hours at 32° to 37° C. A biounit (BU) is defined as the concentration of the antibiotic which gives a 20 mm zone of inhibition under the standard assay conditions. Thus, if for example a fermentation beer has to be diluted 1/100 to give a 20 mm zone of inhibition, the potency of such beer is 100 BU/ml."}, "Sarcina lutea": {"test_system": "Sarcina lutea", "assay": "standard disc (12.7 mm) plate assay", "assay_type": "cell-based", "protocol": "as §1, §2"}, "Bacillus subtilis": {"test_system": "Bacillus subtilis", "assay": "standard disc (12.7 mm) plate assay", "assay_type": "cell-based", "protocol": "as §1, §2"}, "Streptococcus pyogenes": {"test_system": "Streptococcus pyogenes", "assay": "standard disc (12.7 mm) plate assay", "assay_type": "cell-based", "protocol": "as §1, §2"}, "Bacillus cereus": {"test_system": "Bacillus cereus", "assay": "standard disc (12.7 mm) plate assay", "assay_type": "cell-based", "protocol": "as §1, §2"}, "S. lutea": {"test_system": "S. lutea", "assay": "standard tube assay for antibacterial activity, nutrient broth", "assay_type": "cell-based, Sarcina lutea", "protocol": "as §1, with “results: […]” for “results:”"}, "Solubilities": {"assay": "Solubilities", "assay_type": "physicochemical"}, "S. pyogenese": {"test_system": "S. pyogenese", "assay": "in vivo protection of S. pyogenes infected mice", "conditions": "administered subcutaneously"}, "S. aureus [1]": {"test_system": "S. aureus", "assay": "in vivo protection of S. aureus infected mice", "protocol": "Acanthomycin was also tested in vivo in standard laboratory mice. […] Against S. aureus infected mice the CD50 was 1.0 mg/kg."}, "S. aureus [2]": {"test_system": "S. aureus", "assay": "standard tube assay for antibacterial activity, nutrient broth", "assay_type": "cell-based, Staphylococcus aureus", "protocol": "as §1, with “results: […]” for “results:”"}, "[3]": {"conditions": "free acid, slightly soluble, ca."}}, "data": [{"substance": "acanthomycin", "values": [{"measurement": "Zone", "setting": "Staphylococcus aureus; 0.31 mg/ml", "value": 22.5, "unit": "mm"}, {"measurement": "Zone", "setting": "Staphylococcus aureus; 0.62 mg/ml", "value": 24.5, "unit": "mm"}, {"measurement": "Zone", "setting": "Staphylococcus aureus; 1.25 mg/ml", "value": 26.5, "unit": "mm"}, {"measurement": "Zone", "setting": "Staphylococcus aureus; 2.5 mg/ml", "value": 28, "unit": "mm"}, {"measurement": "Zone", "setting": "Staphylococcus aureus; 5 mg/ml", "value": 28.5, "unit": "mm"}, {"measurement": "Zone", "setting": "Staphylococcus aureus; 10 mg/ml", "value": 29.5, "unit": "mm"}, {"measurement": "activity against S. aureus", "setting": "Staphylococcus aureus; statement in words", "value": "active"}, {"measurement": "Zone", "setting": "Sarcina lutea; 0.31 mg/ml", "value": 25, "unit": "mm"}, {"measurement": "Zone", "setting": "Sarcina lutea; 0.62 mg/ml", "value": 27, "unit": "mm"}, {"measurement": "Zone", "setting": "Sarcina lutea; 1.25 mg/ml", "value": 30, "unit": "mm"}, {"measurement": "Zone", "setting": "Sarcina lutea; 2.5 mg/ml", "value": 32, "unit": "mm"}, {"measurement": "Zone", "setting": "Sarcina lutea; 5 mg/ml", "value": 34, "unit": "mm"}, {"measurement": "Zone", "setting": "Sarcina lutea; 10 mg/ml", "value": 35, "unit": "mm"}, {"measurement": "Zone", "setting": "Bacillus subtilis; 0.31 mg/ml", "value": 26, "unit": "mm"}, {"measurement": "Zone", "setting": "Bacillus subtilis; 0.62 mg/ml", "value": 28, "unit": "mm"}, {"measurement": "Zone", "setting": "Bacillus subtilis; 1.25 mg/ml", "value": 30, "unit": "mm"}, {"measurement": "Zone", "setting": "Bacillus subtilis; 2.5 mg/ml", "value": 31.5, "unit": "mm"}, {"measurement": "Zone", "setting": "Bacillus subtilis; 5 mg/ml", "value": 33, "unit": "mm"}, {"measurement": "Zone", "setting": "Bacillus subtilis; 10 mg/ml", "value": 34, "unit": "mm"}, {"measurement": "activity against B. subtilis", "setting": "Bacillus subtilis; statement in words", "value": "active"}, {"measurement": "Zone", "setting": "Streptococcus pyogenes; 0.31 mg/ml", "value": 34, "unit": "mm"}, {"measurement": "Zone", "setting": "Streptococcus pyogenes; 0.62 mg/ml", "value": 36.5, "unit": "mm"}, {"measurement": "Zone", "setting": "Streptococcus pyogenes; 1.25 mg/ml", "value": 38.5, "unit": "mm"}, {"measurement": "Zone", "setting": "Streptococcus pyogenes; 2.5 mg/ml", "value": 40, "unit": "mm"}, {"measurement": "Zone", "setting": "Streptococcus pyogenes; 5 mg/ml", "value": 40, "unit": "mm"}, {"measurement": "Zone", "setting": "Streptococcus pyogenes; 10 mg/ml", "value": 41.5, "unit": "mm"}, {"measurement": "Zone", "setting": "Bacillus cereus; 0.31 mg/ml", "value": 17, "unit": "mm"}, {"measurement": "Zone", "setting": "Bacillus cereus; 0.62 mg/ml", "value": 20, "unit": "mm"}, {"measurement": "Zone", "setting": "Bacillus cereus; 1.25 mg/ml", "value": 21, "unit": "mm"}, {"measurement": "Zone", "setting": "Bacillus cereus; 2.5 mg/ml", "value": 23, "unit": "mm"}, {"measurement": "Zone", "setting": "Bacillus cereus; 5 mg/ml", "value": 25, "unit": "mm"}, {"measurement": "Zone", "setting": "Bacillus cereus; 10 mg/ml", "value": 26, "unit": "mm"}, {"measurement": "minimum inhibitory concentration", "setting": "S. lutea", "value": 25, "unit": "µg/mL"}, {"measurement": "solubility in dimethylformamide", "setting": "Solubilities; free acid", "value": "soluble"}, {"measurement": "solubility in dimethylsulfoxide", "setting": "Solubilities; free acid", "value": "soluble"}, {"measurement": "solubility in ether", "setting": "Solubilities; free acid", "value": "relatively insoluble"}, {"measurement": "solubility in halogenated hydrocarbon solvents", "setting": "Solubilities; free acid", "value": "relatively insoluble"}, {"measurement": "solubility in saturated hydrocarbon solvents", "setting": "Solubilities; free acid", "value": "relatively insoluble"}, {"measurement": "solubility in water", "setting": "Solubilities; free acid", "value": "relatively insoluble"}, {"measurement": "solubility in ethanol", "setting": "Solubilities; [3]", "value": "1000 to 2000", "unit": "µg/mL"}, {"measurement": "solubility in methanol", "setting": "Solubilities; [3]", "value": "1000 to 2000", "unit": "µg/mL"}, {"measurement": "CD50", "setting": "S. pyogenese", "value": "0.23 (0.17-0.31) mg/kg"}, {"measurement": "CD50", "setting": "S. aureus [1]", "value": 1.0, "unit": "mg/kg"}, {"measurement": "minimum inhibitory concentration", "setting": "S. aureus [2]", "value": 50, "unit": "µg/mL"}]}, {"substance": "acanthomycin ammonium salt", "values": [{"measurement": "solubility in lower alcohols", "setting": "Solubilities; salts (ammonium and sodium)", "value": "soluble"}, {"measurement": "solubility in water", "setting": "Solubilities; salts (ammonium and sodium)", "value": "soluble"}]}]}
